“Also recorded” adds a separate entry of the source.
Key:
[1] = system: K+ current in ventricular cardiomyocytes; experiment: Perforated patch-clamp of K+ current in mouse ventricular cardiomyocytes; type: cell-based, C57BL/6J mice; details: 3 μM perfused for 3-4 minutes, +60 mV
Text: Example 3. Effects of the Compounds on the K^+ Current Recorded in Mouse Ventricular Cardiomyocytes
The cardiomyocytes were obtained after enzyme dissociation with collagenase.

KV4.3+KChIP2 channels = target: T1, KV4.3+KChIP2 channels (Homo sapiens, UniProt Q9NS61); experiment: Whole-cell patch-clamp of KV4.3+KChIP2 currents in transiently transfected CHO cells; type: cell-based
T1 construct: expressed in transfected cells; host or cells: CHO cells (transient transfection)
T1 sequence (Q9NS61 1-270): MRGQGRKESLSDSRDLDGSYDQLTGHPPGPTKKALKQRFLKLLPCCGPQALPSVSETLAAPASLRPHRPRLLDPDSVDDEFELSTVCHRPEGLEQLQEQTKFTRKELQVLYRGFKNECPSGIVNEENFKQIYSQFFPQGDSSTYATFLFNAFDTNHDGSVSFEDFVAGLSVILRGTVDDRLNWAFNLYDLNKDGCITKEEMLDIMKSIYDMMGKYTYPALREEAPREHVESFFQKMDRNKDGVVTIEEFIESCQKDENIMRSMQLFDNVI
T1 sequence (Q9UK17 1-655 partner): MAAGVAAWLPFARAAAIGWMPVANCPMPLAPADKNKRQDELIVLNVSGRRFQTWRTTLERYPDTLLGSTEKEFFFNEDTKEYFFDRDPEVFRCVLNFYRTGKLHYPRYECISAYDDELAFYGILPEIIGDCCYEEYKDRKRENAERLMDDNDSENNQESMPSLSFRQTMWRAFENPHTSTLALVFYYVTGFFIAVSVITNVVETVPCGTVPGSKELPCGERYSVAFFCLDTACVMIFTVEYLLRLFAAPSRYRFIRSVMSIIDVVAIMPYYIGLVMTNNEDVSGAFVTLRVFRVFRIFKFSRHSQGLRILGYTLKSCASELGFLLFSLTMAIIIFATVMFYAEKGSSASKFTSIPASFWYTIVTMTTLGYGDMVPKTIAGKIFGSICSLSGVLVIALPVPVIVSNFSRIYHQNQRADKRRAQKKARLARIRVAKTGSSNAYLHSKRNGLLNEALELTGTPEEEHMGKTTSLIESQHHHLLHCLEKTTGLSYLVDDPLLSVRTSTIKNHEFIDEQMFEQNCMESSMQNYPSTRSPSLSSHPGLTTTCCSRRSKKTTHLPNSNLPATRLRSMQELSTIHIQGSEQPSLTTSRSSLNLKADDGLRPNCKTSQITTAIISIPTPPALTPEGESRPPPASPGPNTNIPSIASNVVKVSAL
Text: (§1) Example 2. Tests of the effects of the compounds on the KV4.3/KChIP2 and KV4.3/KChIP2/DPP6 currents generated after the activation of KV4.3/KChIP2 and KV4.3/KChIP2/DPP6 channels expressed in CHO cells.
(§2) The compounds synthesized according to this invention have been evaluated in vitro in voltage clamp tests in CHO cells transiently transfected with cDNA encoding KV4.3 alone or KV4.3 in the presence of KChIP2 (KV4.3+KChIP2) and DPP6 (KV4.3+KChIP2+DPP6) using the whole-cell configuration of the patch-clamp technique. Some of the compounds activate the current generated by the activation of KV4.3+KChIP2 channels.

[2] = target: T2, KV4.3+KChIP2+DPP6 channels (Homo sapiens, UniProt Q9NS61); experiment: Whole-cell patch-clamp of KV4.3+KChIP2+DPP6 currents in transiently transfected CHO cells; type: cell-based
T2 construct: expressed in transfected cells; host or cells: CHO cells (transient transfection)
Text: as §1, §2

T2 sequence (P42658 whole entry partner, one chain of several): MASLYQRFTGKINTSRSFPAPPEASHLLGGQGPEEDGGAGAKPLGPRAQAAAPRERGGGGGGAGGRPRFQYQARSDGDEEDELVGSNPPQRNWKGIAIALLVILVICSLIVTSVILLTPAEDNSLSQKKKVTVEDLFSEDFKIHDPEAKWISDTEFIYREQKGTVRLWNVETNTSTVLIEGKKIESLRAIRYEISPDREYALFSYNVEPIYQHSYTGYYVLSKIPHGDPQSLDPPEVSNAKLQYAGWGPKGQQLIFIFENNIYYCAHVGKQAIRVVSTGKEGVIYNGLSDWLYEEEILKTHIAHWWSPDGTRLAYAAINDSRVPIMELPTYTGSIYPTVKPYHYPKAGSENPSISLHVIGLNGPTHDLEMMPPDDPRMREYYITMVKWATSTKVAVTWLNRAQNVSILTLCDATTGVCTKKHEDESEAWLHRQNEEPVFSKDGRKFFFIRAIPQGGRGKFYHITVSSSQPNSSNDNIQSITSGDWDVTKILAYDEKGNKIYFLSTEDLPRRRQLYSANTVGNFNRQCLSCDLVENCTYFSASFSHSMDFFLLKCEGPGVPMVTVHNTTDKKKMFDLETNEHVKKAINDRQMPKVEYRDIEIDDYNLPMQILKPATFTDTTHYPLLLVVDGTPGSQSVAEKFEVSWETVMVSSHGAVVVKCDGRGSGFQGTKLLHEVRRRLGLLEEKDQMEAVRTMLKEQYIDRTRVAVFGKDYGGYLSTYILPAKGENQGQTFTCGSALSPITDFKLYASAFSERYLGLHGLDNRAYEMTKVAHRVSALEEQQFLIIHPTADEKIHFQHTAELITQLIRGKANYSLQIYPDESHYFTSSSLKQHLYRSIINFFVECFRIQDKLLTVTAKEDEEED

maximum peak of the current (KV4.3+KChIP2 channels; 3 μM, FIG. 1A, CHO cells): lowers the maximum peak
charge, concentration dependence ([2]; FIG. 2B, +60 mV, compared with KV4.3/KChIP2): increase in the charge more pronounced
Structure (SMILES): O=C(Cc1cccc(Oc2ccccc2)c1)Nc1cc2ccccc2cc1C(=O)O [Compound 22bis, 3-[2-(3-phenoxyphenyl)acetylamino]-2-naphthoic acid]
decay (inactivation) time constant of the K+ current [1]: without modifying the decay time constant
maximum peak K+ current [1]: significant increase in the maximum peak current
charge measured as the area under the current record (KV4.3+KChIP2 channels; 3 μM, CHO cells, depolarizing pulses at +60 mV): increases the charge; also recorded: produced an increase in the charge
charge-voltage relationship (Q-V) (KV4.3+KChIP2 channels; 3 μM, FIG. 3): increase in the charge of the KV4.3/KChIP2 and KV4.3/KChIP2/DPP6 current which turned out to be significant at potentials positive than 0 mV
decrease in the peak versus decrease in the charge, concentration dependence (KV4.3+KChIP2 channels; all concentrations tested except 0.01 μM, FIG. 2, +60 mV): decrease in the peak that was significantly greater than that of the charge
current activating effect ([2]; 3 μM, FIG. 1B, compared with KV4.3+KChIP2): more pronounced in the presence of the DPP6 subunit
charge-voltage relationship (Q-V) ([2]; 3 μM, FIG. 3): increase in the charge of the KV4.3/KChIP2 and KV4.3/KChIP2/DPP6 current which turned out to be significant at potentials positive than 0 mV; also recorded: greater than in KV4.3/KChIP2 channels
